Series [1] concerns human engineered cardiac tissue. As to the kind of experiment: Validation of engineered cardiac tissue with drugs of known cardiac effects: beat frequency. In kind it is cell-based. An excerpt: Levels were normalized first to β actin and subsequently to the tissue engineered bone control (mean ± s.d., n = 3). […] All scale bars: 100 µm.
The cardiac tissue model was generated from iPS-derived cardiomyocytes and fibroblasts encapsulated in fibrin hydrogel, as in our previous studies. The tissue was formed between two elastic pillars causing cell elongation and alignment, and subjected to electrical stimulation to synchronously contract and work against the pillars.
Specifically, linsitinib was dissolved at a 10 mM concentration in DMSO (Corning) and mixed in with the respective cell medium at a […] concentration unless otherwise noted. Vehicle treatments involved just the addition of DMSO at identical volumes as a control. Tissues were randomly assigned to experimental groups. Medium was changed every day.
To measure the cardiac contractility online, we took contractility videos of the tissues that were analyzed using the native MATLAB code we previously developed. Tissue contractility was measured by tracking the change in tissue area as a function of time. Acquired video frames were inverted and an automated intensity threshold was used to identify cell location in the video frame. First, a baseline time point in the video corresponding to a relaxed tissue state was selected. Absolute differences in cell area from the baseline frame were then calculated to create a time course of cell area changes over time. The resulting time courses were analyzed using a native MATLAB (MATHWorks) automated peak finding algorithm to determine locations of maximum cell contractions in the time profiles. Beat period lengths were determined from the length of time between the pairs of local maxima, and the beat frequencies were determined by inverting beat periods. The rate of proarrhythmic events was calculated by the ratio of the number of proarrhythmic events over the total number of beats.

The next series concerns cardiac muscle. The series can be described thus: Drug distribution with functional matching in InterOrgan platform: cardiac beat frequency. In kind it is cell-based, human. As to conditions: 10 µM introduced into the reservoir at t = 0; assessed at 24 and 72 hours.
Series [2] has as its system all tissues in the InterOrgan platform. The series can be described thus: Doxorubicin-induced toxicity in InterOrgan platform: viability and metabolism of all tissues. In kind it is cell-based, human. The settings on record: 30 µM Dox, 72 hours after exposure. As to the method: After the acute dose, each engineered tissue was assessed for cell viability, glucose consumption, and mitochondrial activity 72 hours after exposure (FIGS. 13D-F). Functional features for each engineered tissue 72 hours after acute exposure (n=3-5) are shown in FIGS. 13G-J. Over a thousand miRNAs from control and Dox-exposed cardiac tissues were differentially expressed under Isolated and InterOrgan conditions (FIG. 13K).
Treatment with 30 µM Dox, corresponding to the clinically administered cumulative dosage shown to induce cardiotoxicty, was delivered to tissues in the InterOrgan platform through the vascular channel and compared against the Isolated condition (FIG. 13A). […] We also detected decreased cardiac contractility and increased troponin release, both clinical measures of cardiac cell damage (FIG. 13G).
Metabolic Assays: Glucose, lactate, glutamate and glutamine were measured in parallel using the bioluminescent Glucose-Glo™ (Promega, cat. no. J6021), Lactate-Glo™ (Promega, cat. No. J5021), Glutamine/Glutamate-Glo™ (Promega, cat. no. J8021) and Glutamate-Glo™ (Promega, cat. no. J7021) assays according to the manufacturer’s protocols.

For series [3], the system named is engineered cardiac tissues. As to the kind of experiment: Doxorubicin-induced toxicity: heart function assays. In kind it is cell-based, human. As to conditions: 30 µM Dox, 72 hours. The method, then: Heart function assays: Cardiac excitability, force, and beat rate were obtained using our previously established protocols. Cardiac troponin secretion was determined using the Human Cardiac Troponin I ELISA Kit (Abcam, ab200016) according to the manufacturer’s instructions.

The next series relates to Bone tissues. As to the kind of experiment: Doxorubicin-induced toxicity: bone function assays. It counts as cell-based, human. As to conditions: 30 µM Dox, 72 hours. The method, then:
Bone function assays: To assess the bone’s ability to remodel its matrix, supernatant samples were analyzed for […], (TRAP, Kamiya Biomedical Company, KT-008) and bone sialoprotein (Human Bone Sialoprotein ELISA Kit, Mybiosource, cat. no. MBS261861) after 28 days of culture. These assays were performed according to the manufacturer’s instructions.

The test system of a further series is Liver tissues. The series can be described thus: Doxorubicin-induced toxicity: liver function assays. The settings on record: 30 µM Dox, 72 hours. In kind it is cell-based, human. As to the method: Liver function assays: To assess liver function, […] and urea secretion using a Human ELISA kit (Bethyl, E88-129) and a Urea Nitrogen Test Kit (Fisher Scientific, SB-0580-250), respectively. Comparing these samples to the provided standard, concentrations of albumin and urea were calculated and compared to the secretion for each tissue at Day 0. Assays were performed according to the manufacturer’s instructions.

Another series deals with skin tissues. As to the kind of experiment: Doxorubicin-induced toxicity: skin functional assays. It counts as cell-based, human. The settings on record: 30 µM Dox, 72 hours; both Isolated and InterOrgan cultures. The method, then:
Skin functional assays: For drug-induced toxicity studies, electrical current was run through the tissues by placing electrodes on either side of the skin tissue and the change in resistance was subsequently measured and read as a function of the barrier. All tissues were analyzed using the same electrode holder setup to standardize the positions of electrodes with respect to the tissue. To analyze the transport of molecules through the skin barrier, Fluorescein (FITC, ThermoFisher, D3306) powder was added to the epidermis of skin tissues. After 3 hrs, 100 µl of supernatant from the dermal region below the skin tissue was sampled and assayed on a plate reader (BioTex Synergy HTX).

Series [4] can be described thus: FITC circulation in the platform (absorption and diffusive transport). It counts as physicochemical. As to the method: We also circulated fluorescent FITC, which has similar chemical properties as linsitinib including hydrophobicity and molecular weight, and measured its distribution across the 2 tissue chambers in the platform (FIG. 26F). The simulated and empirical results agreed: FITC also reached uniform concentration in all areas of the platform in within 12 hours, after reaching equilibrium across both models at approximately 6 hours. This is significant, since linsitinib is known to have a short half-life of approximately 5 hours. The delayed drug distribution by diffusion through tissues observed here has been documented as an issue for treating solid tumors in patients, with chemotherapeutic concentrations decreasing exponentially with distance from tumor blood vessels and often being limited to the peripheries of tumors even 12 hours after injection.
Fluorescein isothiocyanate (FITC, 10 mM in DMSO; Sigma Aldrich) was circulated for the integrated platform to determine potential hydrophobic small molecule absorption, given its physical and chemical properties. FITC was added at a concentration of 10 µM to 8 mL of 1:1 bone tumor/cardiac mixed media and introduced into the platform. The control was the FITC-containing media in a standard 24-multiwell plate (Corning). Aliquots from the reservoir, bone tumor, and cardiac tissue chambers were taken at 12, 24, 48 and 72 hours and measured for fluorescent signal using a spectrophotometer (Biotek).
Measurements of FITC concentrations were used to estimate the spread of linsitinib within the platform via diffusive circulating transport. Four independent platforms were filled with 8 mL of 1:1 mixed media each, after which 10 µM of FITC was injected into the reservoir. The platforms were connected to the peristaltic pumps run at 100 rpm to generate physiologically relevant fluid flow rate and shear stress. Aliquots were taken from the reservoir, bone and cardiac chambers at 0, 2, 4, 6, and 12 hours post injection, and assayed for fluorescence signal on a spectrophotometer (Biotek).

The next series has as its system endothelial barrier. As to the kind of experiment: Endothelial barrier permeability response to thrombin. In kind it is cell-based, human. The settings on record: endothelialized mesh inserts under flow shear. An excerpt:
Vascularization The generation of a patient-specific vascular barrier is critical for functionally connecting tissue compartments while maintaining each tissues, as well as vascular perfusion, under optimal culture conditions resulting in phenotypic stability and maturation, analogous to the separation of interstitial and intravascular compartments in vivo. Transwell mesh inserts in each tissue chamber were coated with fibronectin and seeded with ECs and supporting MSCs with 2:1 ratio (FIG. 36). A stable endothelial barrier was then established by exposure to flow shear (ramped up from 1 to 5 dyn/cm^2 over 5 days of culture). To physiologically integrate engineered tumors and host tissues by vascular flow, the endothelialized membrane needs to separate the interstitial and intravascular spaces, enabling vasculature-mediated tissues crosstalk. […] Such response to an inflammatory agent is critical for metastatic extravasation of cancer cells. The endothelial barrier allowed optimization of culture conditions for each tissue - akin to compartmentalization in the body that avoids the use of “common” media. This approach promoted long term culture (4-12 weeks) of matured tissues, with on-line readouts (cell tracking, viability, function) in longitudinal and dynamic studies. […]

The mark [5] stands for this setting: isoproterenol dose-response study.
[6] abbreviates: 10 µM injected into the reservoir.

Where a name gives a salt, the structure may show the parent alone.

Consider `CCCCc1oc2ccccc2c1C(=O)c1cc(I)c(OCCN(CC)CC)c(I)c1` [Amiodarone, amiodarone hydrochloride], for which the beat frequency entry in series [1] (amiodarone 2.418 µM over 48 hours) is “expected decreases in the beat frequency”.
For the molecule `Cn1c(=O)c2c(ncn2C)n(C)c1=O` [caffeine], the beat frequency entry in series [1] (caffeine 50 mM) is on record as “physiologic increases in beat frequency”.
For `CN(CCOc1ccc(NS(C)(=O)=O)cc1)CCc1ccc(NS(C)(=O)=O)cc1` [dofetilide], the “beat rate of cardiac muscle” value in the series on cardiac muscle is on record as “decreased”.
For the molecule `COc1cccc2c1C(=O)c1c(O)c3c(c(O)c1C2=O)C[C@@](O)(C(=O)CO)C[C@@H]3O[C@H]1C[C@H](N)[C@H](O)[C@H](C)O1` [doxorubicin], in [2], the Cell viability result is given as “significantly decreased”, the glucose consumption result is recorded as “significantly decreased” and the mitochondrial activity entry is listed as “significantly decreased”. In addition, in series [3], the cardiac contractility result is listed as “decreased” and the troponin release entry was “increased”. Further, in the series with Bone tissues, the TRAP responses entry was “stable” and the cellularity entry is “decreased”. In addition, the beat frequency entry in series [1] (doxorubicin 1 µM over 72 hours) is “initially increased, and then decreased following prolonged exposure to the drug”. For the same molecule, in the series with Liver tissues, the albumin result is on record as “decreased” and the urea production entry is listed as “unaffected”. Further, in the series with skin tissues, the diffusional permeability entry is recorded as “increased” and the electrical resistance entry was “decreased”.
As to `CNC[C@H](O)c1ccc(O)c(O)c1` [epinephrine], in the series on cardiac muscle, the “beat rate of cardiac muscle” value is “increased”.
Regarding `CC(C)NCC(O)c1ccc(O)c(O)c1` (stereo not shown) [isoproterenol, isoproterenol hydrochloride], in series [1] (setting [5]), the “EC50 (beat frequency)” value was “expected values of EC50” and the beat frequency entry is “increased”.
For Fluorescein isothiocyanate [FITC], the “absorption by the platform” value in series [4] (10 µM circulated for 72 hours, polysulfone platform compared to multi-well plates) was “without any measurable absorption by the platform”. Further, in series [4] (setting [6]), the “time to equilibrium across both models” value is on record as “approximately 6 hours” and the “time to uniform concentration in all areas of the platform” value was at most 12 h.
As to thrombin, in the series with endothelial barrier, the barrier permeability entry is on record as “physiologic increase in barrier permeability”.

These data come from US20230287316A1, “INTER-ORGAN PLATFORM WITH TISSUE-SPECIFIC NICHES FOR A MICROPHYSIOLOGICAL SYSTEM ON A CHIP” (THE TRUSTEES OF COLUMBIA UNIVERSITY IN THE CITY OF NEW YORK, priority 2020, published 2023).
